Measurements published in ChEMBL document CHEMBL5584328, “Integrating computational and experimental chemical biology revealed variable anticancer activities of phosphodiesterase isoenzyme 5 inhibitors (PDE5i) in lung cancer” (RSC Med Chem, 2024).
One block for each compound: values may come before it. Activity calls are given as the source filed them. No cut-off for these calls is given here.

How the values were obtained:
[1] = test system: NCI-H661; test: Antiproliferative activity against human NCI-H661 cells measured after 24 hrs by MTT assay; type: functional, cell-based; details: for IC50: NCI-H661, 24 h
[2] = test system: A549; test: Potentiation of cisplatin-induced cytotoxicity against human A549 cells assessed as combination index at 1:7 ratio of cisplatin to compound measured after 48 hrs by MTT assay; type: functional
[3] = test system: A549; test: Potentiation of raloxifene-induced cytotoxicity against human A549 cells assessed as combination index at 1:4 ratio of raloxifene to compound measured after 48 hrs by MTT assay; type: functional
[4] = test system: A549; test: Antiproliferative activity against human A549 cells measured after 24 hrs by MTT assay; type: functional, cell-based; details: for IC50: A549, 24 h
[5] = test system: NCI-H1299; test: Antiproliferative activity against human NCI-H1299 cells by MTT assay; type: functional, cell-based; details: time 24-72 hrs, TDE = time-dependent effect
[6] = test system: A549; test: Antiproliferative activity against human A549 cells measured after 48 hrs by MTT assay; type: functional, cell-based; details: for IC50: A549, 48 h
[7] = test system: NCI-H661; test: Potentiation of raloxifene-induced cytotoxicity against human NCI-H661 cells assessed as fold reduction in raloxifene IC50 at 1:5 ratio of raloxifene to compound measured after 48 hrs by MTT assay relative to raloxifene alone; type: functional
[8] = test system: NCI-H661; test: Antiproliferative activity against human NCI-H661 cells measured after 48 hrs by MTT assay; type: functional, cell-based; details: for IC50: NCI-H661, 48 h
[9] = test system: NCI-H661; test: Potentiation of cisplatin-induced cytotoxicity against human NCI-H661 cells assessed as combination index at 1:9 ratio of cisplatin to compound measured after 48 hrs by MTT assay; type: functional
[10] = test system: NCI-H661; test: Potentiation of raloxifene-induced cytotoxicity against human NCI-H661 cells assessed as combination index at 1:5 ratio of raloxifene to compound measured after 48 hrs by MTT assay; type: functional
[11] = test system: NCI-H1299; test: Potentiation of raloxifene-induced cytotoxicity against human NCI-H1299 cells assessed as fold reduction in raloxifene IC50 at 1:5 ratio of raloxifene to compound measured after 48 hrs by MTT assay relative to raloxifene alone; type: functional
[12] = test system: A549; test: Reduction in PDE5 protein expression in human A549 cells at 0.25 to 0.5 IC50 measured after 48 hrs by Western blot analysis; type: functional, cell-based
[13] = test system: NCI-H661; test: Potentiation of cisplatin-induced cytotoxicity against human NCI-H661 cells assessed as fold reduction in cisplatin IC50 at 1:9 ratio of cisplatin to compound measured after 48 hrs by MTT assay relative to cisplatin alone; type: functional
[14] = test system: A549; test: Reduction in Bcl-2 gene expression in human A549 cells at 0.1 IC50 measured after 48 hrs by qRT-PCR analysis; type: functional, cell-based
[15] = test system: NCI-H1299; test: Antiproliferative activity against human NCI-H1299 cells measured after 72 hrs by MTT assay; type: functional, cell-based; details: for IC50: NCI-H1299, 72 h
[16] = test system: NCI-H1299; test: Antimigratory activity against human NCI-H1299 cells assessed as reduction in wound closure measured after 24 hrs by wound healing assay; type: functional, cell-based
[17] = test system: A549; test: Cell cycle arrest in human A549 cells assessed as increase in cell population at G0/G1 phase at 85 uM measured after 48 hrs by propidium iodide staining based flow cytometry; type: functional
[18] = test system: A549; test: Inhibition of colony formation in human A549 cells assessed as reduction in number of colonies at 85 to 170 uM measured after 48 hrs by colony formation assay; type: functional, cell-based; details: dose 85-170 µM
[19] = test system: A549; test: Antiproliferative activity against human A549 cells by MTT assay; type: functional, cell-based; details: time 24-72 hrs, TDE = time-dependent effect
[20] = test system: NCI-H661; test: Antiproliferative activity against human NCI-H661 cells measured after 72 hrs by MTT assay; type: functional, cell-based; details: for IC50: NCI-H661, 72 h
[21] = test system: A549; test: Inhibition of colony formation in human A549 cells assessed as reduction in size of colonies at 85 to 170 uM measured after 48 hrs by colony formation assay; type: functional, cell-based; details: dose 85-170 µM
[22] = test system: A549; test: Induction of apoptosis in human A549 cells assessed as increase in apoptotic cells at 340 uM measured after 48 hrs by Annexin V-FITC/PI staining based flow cytometry relative to control; type: functional
[23] = test system: A549; test: Antiproliferative activity against human A549 cells measured after 72 hrs by MTT assay; type: functional, cell-based; details: for IC50: A549, 72 h
[24] = test system: NCI-H1299; test: Antiproliferative activity against human NCI-H1299 cells measured after 48 hrs by MTT assay; type: functional, cell-based; details: for IC50: NCI-H1299, 48 h
[25] = test system: A549; test: Potentiation of cisplatin-induced cytotoxicity against human A549 cells assessed as fold reduction in cisplatin IC50 at 1:7 ratio of cisplatin to compound measured after 48 hrs by MTT assay relative to cisplatin alone; type: functional
[26] = test system: NCI-H1299; test: Potentiation of raloxifene-induced cytotoxicity against human NCI-H1299 cells assessed as combination index at 1:5 ratio of raloxifene to compound measured after 48 hrs by MTT assay; type: functional
[27] = test system: NCI-H1299; test: Antiproliferative activity against human NCI-H1299 cells measured after 24 hrs by MTT assay; type: functional, cell-based; details: for IC50: NCI-H1299, 24 h
[28] = test system: NCI-H1299; test: Potentiation of cisplatin-induced cytotoxicity against human NCI-H1299 cells assessed as fold reduction in cisplatin IC50 at 1:9 ratio of cisplatin to compound measured after 48 hrs by MTT assay relative to cisplatin alone; type: functional
[29] = test system: NCI-H1299; test: Potentiation of cisplatin-induced cytotoxicity against human NCI-H1299 cells assessed as combination index at 1:9 ratio of cisplatin to compound measured after 48 hrs by MTT assay; type: functional
[30] = test system: NCI-H661; test: Antiproliferative activity against human NCI-H661 cells by MTT assay; type: functional, cell-based; details: time 24-72 hrs, TDE = time-dependent effect
[31] = test system: A549; test: Potentiation of raloxifene-induced cytotoxicity against human A549 cells assessed as fold reduction in raloxifene IC50 at 1:4 ratio of raloxifene to compound measured after 48 hrs by MTT assay relative to raloxifene alone; type: functional
[32] = test system: A549; test: Reduction in PDE5 gene expression in human A549 cells at 0.1 IC50 measured after 48 hrs by qRT-PCR analysis; type: functional, cell-based
[33] = test system: NCI-H661; test: Potentiation of raloxifene-induced cytotoxicity against human NCI-H661 cells assessed as combination index at 1:7 ratio of raloxifene to compound measured after 48 hrs by MTT assay; type: functional
[34] = test system: A549; test: Potentiation of cisplatin-induced cytotoxicity against human A549 cells assessed as fold reduction in cisplatin IC50 at 1:4 ratio of cisplatin to compound measured after 48 hrs by MTT assay relative to cisplatin alone; type: functional
[35] = test system: A549; test: Cell cycle arrest in human A549 cells assessed as increase in cell population at G2 phase at 52.5 uM measured after 48 hrs by propidium iodide staining based flow cytometry; type: functional
[36] = test system: A549; test: Inhibition of colony formation in human A549 cells assessed as reduction in size of colonies at 52.5 to 105 uM measured after 48 hrs by colony formation assay; type: functional, cell-based; details: dose 52.5-105 µM
[37] = test system: NCI-H661; test: Potentiation of cisplatin-induced cytotoxicity against human NCI-H661 cells assessed as combination index at 1:14 ratio of cisplatin to compound measured after 48 hrs by MTT assay; type: functional
[38] = test system: NCI-H661; test: Potentiation of raloxifene-induced cytotoxicity against human NCI-H661 cells assessed as fold reduction in raloxifene IC50 at 1:7 ratio of raloxifene to compound measured after 48 hrs by MTT assay relative to raloxifene alone; type: functional
[39] = test system: NCI-H1299; test: Potentiation of cisplatin-induced cytotoxicity against human NCI-H1299 cells assessed as fold reduction in cisplatin IC50 at 1:35 ratio of cisplatin to compound measured after 48 hrs by MTT assay relative to cisplatin alone; type: functional
[40] = test system: NCI-H1299; test: Potentiation of cisplatin-induced cytotoxicity against human NCI-H1299 cells assessed as combination index at 1:35 ratio of cisplatin to compound measured after 48 hrs by MTT assay; type: functional
[41] = test system: NCI-H1299; test: Potentiation of raloxifene-induced cytotoxicity against human NCI-H1299 cells assessed as combination index at 1:20 ratio of raloxifene to compound measured after 48 hrs by MTT assay; type: functional
[42] = test system: A549; test: Induction of apoptosis in human A549 cells assessed as increase in apoptotic cells at 210 uM measured after 48 hrs by Annexin V-FITC/PI staining based flow cytometry relative to control; type: functional
[43] = test system: NCI-H661; test: Potentiation of cisplatin-induced cytotoxicity against human NCI-H661 cells assessed as fold reduction in cisplatin IC50 at 1:14 ratio of cisplatin to compound measured after 48 hrs by MTT assay relative to cisplatin alone; type: functional
[44] = test system: A549; test: Potentiation of raloxifene-induced cytotoxicity against human A549 cells assessed as fold reduction in raloxifene IC50 at 1:2 ratio of raloxifene to compound measured after 48 hrs by MTT assay relative to raloxifene alone; type: functional
[45] = test system: A549; test: Inhibition of colony formation in human A549 cells assessed as reduction in number of colonies at 52.5 to 105 uM measured after 48 hrs by colony formation assay; type: functional, cell-based; details: dose 52.5-105 µM
[46] = test system: A549; test: Potentiation of raloxifene-induced cytotoxicity against human A549 cells assessed as combination index at 1:2 ratio of raloxifene to compound measured after 48 hrs by MTT assay; type: functional
[47] = test system: NCI-H1299; test: Potentiation of raloxifene-induced cytotoxicity against human NCI-H1299 cells assessed as fold reduction in raloxifene IC50 at 1:20 ratio of raloxifene to compound measured after 48 hrs by MTT assay relative to raloxifene alone; type: functional
[48] = test system: A549; test: Potentiation of cisplatin-induced cytotoxicity against human A549 cells assessed as combination index at 1:4 ratio of cisplatin to compound measured after 48 hrs by MTT assay; type: functional

IC50 [1]: 264 µM | IC50 [4]: 127 µM | IC50 [6]: 170 µM | IC50 [8]: 186 µM | IC50 [15]: 169 µM | IC50 [20]: 78.5 µM | IC50 [23]: 131 µM | IC50 [24]: 184 µM | IC50 [27]: 162 µM
Compound: COc1ccc(CNc2nc(N3CCC[C@H]3CO)ncc2C(=O)NCc2ncccn2)cc1Cl [AVANAFIL]
Activity [1]: Dose-Dependent Effect | CI [2]: 0.95 | CI [3]: 0.99 | Activity [4]: Dose-Dependent Effect | Activity [5]: Tde | Activity [6]: Dose-Dependent Effect | fold change (FC) [7]: 2.7 | Activity [8]: Dose-Dependent Effect | CI [9]: 0.89 | CI [10]: 0.9 | fold change (FC) [11]: 3 | Activity [12]: Dose-Dependent Effect | fold change (FC) [13]: 2.4 | Activity [14]: Active | Activity [15]: Dose-Dependent Effect | Activity [16]: Dose-Dependent Effect | Activity [17]: Active | inhibition [18]: Active | Activity [19]: Tde | Activity [20]: Dose-Dependent Effect | inhibition [21]: Active | Activity [22]: 44% | Activity [23]: Dose-Dependent Effect | Activity [24]: Dose-Dependent Effect | fold change (FC) [25]: 2.1 | CI [26]: 0.73 | Activity [27]: Dose-Dependent Effect | fold change (FC) [28]: 2.8 | CI [29]: 0.69 | Activity [30]: Tde | fold change (FC) [31]: 1.9 | Activity [32]: Active

IC50 [1]: 876 µM | IC50 [4]: 354 µM | IC50 [6]: 106 µM | IC50 [8]: 281 µM | IC50 [15]: 127 µM | IC50 [20]: 243 µM | IC50 [23]: 73.9 µM | IC50 [24]: 274 µM | IC50 [27]: 359 µM
Compound: CN1CC(=O)N2[C@H](c3ccc4c(c3)OCO4)c3[nH]c4ccccc4c3C[C@@H]2C1=O [TADALAFIL]
Activity [1]: Dose-Dependent Effect | CI [33]: 0.89 | fold change (FC) [34]: 2.1 | Activity [4]: Dose-Dependent Effect | Activity [5]: Tde | Activity [6]: Dose-Dependent Effect | Activity [8]: Dose-Dependent Effect | Activity [35]: Active | Activity [12]: Dose-Dependent Effect | Activity [14]: Active | Activity [15]: Dose-Dependent Effect | inhibition [36]: Active | Activity [16]: Dose-Dependent Effect | CI [37]: 0.89 | fold change (FC) [38]: 2.1 | Activity [19]: Tde | fold change (FC) [39]: 2.6 | Activity [20]: Dose-Dependent Effect | CI [40]: 0.78 | Activity [23]: Dose-Dependent Effect | Activity [24]: Dose-Dependent Effect | CI [41]: 0.44 | Activity [27]: Dose-Dependent Effect | Activity [42]: 22.2% | fold change (FC) [43]: 2 | fold change (FC) [44]: 1.9 | inhibition [45]: Active | CI [46]: 0.98 | Activity [30]: Tde | fold change (FC) [47]: 5.2 | CI [48]: 0.92 | Activity [32]: Active
